Results from patent US9512075B2 (OKAYAMA UNIVERSITY, priority 2012, dated 2016).
In brackets after ≈: the same amount, converted by molar mass. Like-named read-outs stand apart in the source and are kept apart here.

How the values were obtained:
Format in all cases: cell-based
[1] = tested on: Staphylococcus aureus Smith strain; test: MIC for Staphylococcus aureus Smith strain; conditions: read-out: MIC Straphyrococcus aureus Smith
[2] = tested on: Staphylococcus aureus 209P strain; test: MIC for Staphylococcus aureus 209P strain; conditions: for MIC: Staphylococcus aureus, read-out: MIC Straphyrococcus aureus 209P
[3] = tested on: Staphylococcus aureus MRSA No. 17 (methicillin-resistant Staphylococcus aureus: MRSA); test: MIC for Staphylococcus aureus MRSA No. 17; conditions: read-out: MIC Straphyrococcus aureus MRSA No. 17 (MRSA)
[4] = tested on: Enterococcus faecalis 5038 strain; test: MIC for Enterococcus faecalis 5038 strain; conditions: read-out: MIC Enterococcus faecalis 5038
[5] = tested on: Enterococcus faecalis NCTC12201 strain (vancomycin-resistant Enterococcus: VRE); test: MIC for Enterococcus faecalis NCTC12201 strain (VRE); conditions: read-out: MIC Enterococcus faecalis NCTC 12201 (VRE)
[6] = tested on: Clostridium difficile JCM1296 strain; test: microbe, parasite or virus in culture; conditions: for MIC: Clostridioides difficile, JCM1296, read-out: MIC Clostridium difficile JCM1296
[7] = tested on: Clostridium perfringens PB6K strain; test: microbe, parasite or virus in culture; conditions: CD medium, 37° C. overnight, 10% CO2-containing anaerobic conditions; for MIC: Clostridium perfringens, PB6KSTRAIN, read-out: MIC Clostridium perfringens PB6K, PB6K strain
[8] = tested on: Escherichia coli K-12 strain; test: MIC for Escherichia coli K-12 strain; conditions: for MIC: Escherichia coli, K12STRAIN, read-out: MIC Escherichia coli K12
[9] = tested on: Escherichia coli BE1121 strain; test: MIC for Escherichia coli BE1121 strain; conditions: for MIC: Escherichia coli, BE1121STRAIN, read-out: MIC Escherichia coli BE1121
[10] = Smith strain, regular bouillon medium, 37° C. overnight, turbidity
[11] = 209P strain, regular bouillon medium, 37° C. overnight, turbidity
[12] = MRSA No. 17, regular bouillon medium, 37° C. overnight, turbidity
[13] = 5038 strain, Heart Infusion Broth medium, 37° C. overnight, turbidity
[14] = NCTC12201 strain (VRE), Heart Infusion Broth medium, 37° C. overnight, turbidity
[15] = K-12 strain, regular bouillon medium, 37° C. overnight, turbidity
[16] = BE1121 strain, regular bouillon medium, 37° C. overnight, turbidity

CCCCC1CCC(C(O)=C2C(=O)N(C(=O)c3ccccc3)c3ccccc32)CC1 (stereo not drawn) [A014, N-benzoyl-3-(4-butylcyclohexylcarbonyl)-2-oxyindole]
MIC [1, 10]: 1 µg/mL (≈ 2.48 µM)
MIC [2, 11]: 2 µg/mL (≈ 4.96 µM)
MIC [3, 12]: 4 µg/mL (≈ 9.91 µM)
MIC [4, 13]: 1 µg/mL (≈ 2.48 µM)
MIC [5, 14]: 0.5 µg/mL (≈ 1.24 µM)
MIC [6]: 4 µg/mL (≈ 9.91 µM)
MIC [7]: 8 µg/mL (≈ 19.8 µM)
MIC [8, 15]: 128 µg/mL (≈ 317 µM)
MIC [9, 16]: 128 µg/mL (≈ 317 µM)

CCCCC1CCC(C(=O)c2c(O)c3cc(F)ccc3oc2=O)CC1 (stereo not drawn) [B009, 3-(4-butylcyclohexylcarbonyl)-6-fluoro-4-hydroxycoumarin]
MIC [1]: 0.5 µg/mL (≈ 1.44 µM)
MIC [2, 11]: 1 µg/mL (≈ 2.89 µM)
MIC ([3]; MRSA): 1 µg/mL (≈ 2.89 µM)
MIC ([4]; 5038STRAIN): 0.5 µg/mL (≈ 1.44 µM)
MIC [5]: 0.5 µg/mL (≈ 1.44 µM)
MIC [6]: 0.25 µg/mL (≈ 0.722 µM)
MIC [7]: 1 µg/mL (≈ 2.89 µM)
MIC [8, 15]: 256 µg/mL (≈ 739 µM)
MIC [9, 16]: 4 µg/mL (≈ 11.5 µM)

CCCCC1CCC(C(O)=C2C(=O)N(C(=O)Nc3ccc(F)cc3)c3ccccc32)CC1 (stereo not drawn) [A043, N-(4-fluorophenylaminocarbonyl)-3-(4-butylcyclohexylcarbonyl)-2-oxyindole]
MIC [1, 10]: 1 µg/mL (≈ 2.29 µM)
MIC [2, 11]: 256 µg/mL (≈ 586 µM)
MIC [3, 12]: 128 µg/mL (≈ 293 µM)
MIC [4, 13]: 1 µg/mL (≈ 2.29 µM)
MIC [5, 14]: 1 µg/mL (≈ 2.29 µM)
MIC [6]: 1 µg/mL (≈ 2.29 µM)
MIC [7]: 4 µg/mL (≈ 9.16 µM)
MIC [8, 15]: 256 µg/mL (≈ 586 µM)
MIC [9, 16]: 256 µg/mL (≈ 586 µM)

CCCCCCCCCC(O)=C1C(=O)N(C(=O)OC(C)(C)C)c2cc(Cl)ccc21 [A003, N-Boc-3-decanoyl-6-chloro-2-oxyindole]
MIC [1, 10]: 256 µg/mL (≈ 607 µM)
MIC [2, 11]: 256 µg/mL (≈ 607 µM)
MIC [3, 12]: 256 µg/mL (≈ 607 µM)
MIC [4, 13]: 128 µg/mL (≈ 303 µM)
MIC [5, 14]: 128 µg/mL (≈ 303 µM)
MIC [6]: 0.5 µg/mL (≈ 1.18 µM)
MIC [7]: 1 µg/mL (≈ 2.37 µM)
MIC [8, 15]: 256 µg/mL (≈ 607 µM)
MIC [9, 16]: 128 µg/mL (≈ 303 µM)

CCCCCCCCCCOCC(O)=C1C(=O)N(C(=O)Nc2ccc(F)cc2)c2ccccc21 [A041, N-(4-fluorophenylaminocarbonyl)-3-decyloxyacetyl-2-oxyindole]
MIC [1, 10]: 4 µg/mL (≈ 8.54 µM)
MIC [2, 11]: 256 µg/mL (≈ 546 µM)
MIC [3, 12]: 256 µg/mL (≈ 546 µM)
MIC [4, 13]: 2 µg/mL (≈ 4.27 µM)
MIC [5, 14]: 4 µg/mL (≈ 8.54 µM)
MIC [6]: 0.5 µg/mL (≈ 1.07 µM)
MIC [7]: 8 µg/mL (≈ 17.1 µM)
MIC [8, 15]: 128 µg/mL (≈ 273 µM)
MIC [9, 16]: 256 µg/mL (≈ 546 µM)

CCCCC1CCC(C(O)=C2C(=O)N(C(=O)Nc3ccccc3)c3ccc(Br)cc32)CC1 (stereo not drawn) [A034, N-(phenylaminocarbonyl)-5-bromo-3-(4-butylcyclohexylcarbonyl)-2-oxyindole]
MIC [1, 10]: 1 µg/mL (≈ 2.01 µM)
MIC [2, 11]: 32 µg/mL (≈ 64.3 µM)
MIC [3, 12]: 64 µg/mL (≈ 129 µM)
MIC [4, 13]: 1 µg/mL (≈ 2.01 µM)
MIC [5, 14]: 1 µg/mL (≈ 2.01 µM)
MIC [6]: 0.5 µg/mL (≈ 1.01 µM)
MIC [7]: 0.5 µg/mL (≈ 1.01 µM)
MIC [8, 15]: 128 µg/mL (≈ 257 µM)
MIC [9, 16]: 128 µg/mL (≈ 257 µM)

CCCCCCCCCCOCC(O)=C1C(=O)N(C(C)=O)c2ccc(Br)cc21 [A029, N-acetyl-5-bromo-3-decyloxyacetyl-2-oxyindole]
MIC [1, 10]: 0.5 µg/mL (≈ 1.11 µM)
MIC [2, 11]: 128 µg/mL (≈ 283 µM)
MIC [3, 12]: 128 µg/mL (≈ 283 µM)
MIC [4, 13]: 0.25 µg/mL (≈ 0.553 µM)
MIC [5]: < 0.125 µg/mL
MIC [6]: < 0.125 µg/mL
MIC [7]: < 0.125 µg/mL
MIC [8, 15]: 128 µg/mL (≈ 283 µM)
MIC [9, 16]: 128 µg/mL (≈ 283 µM)

CCCCCCCCCCOCC(O)=C1C(=O)N(C(C)=O)c2ccc(F)cc21 [A023, N-acetyl-3-decyloxyacetyl-5-fluoro-2-oxyindole]
MIC [1, 10]: 1 µg/mL (≈ 2.55 µM)
MIC [2, 11]: 128 µg/mL (≈ 327 µM)
MIC [3, 12]: 64 µg/mL (≈ 163 µM)
MIC [4, 13]: 0.25 µg/mL (≈ 0.639 µM)
MIC [5, 14]: 0.25 µg/mL (≈ 0.639 µM)
MIC [6]: < 0.125 µg/mL
MIC [7]: < 0.125 µg/mL
MIC [8, 15]: 128 µg/mL (≈ 327 µM)
MIC [9, 16]: 128 µg/mL (≈ 327 µM)

CCCCCCCCCCOCC(O)=C1C(=O)N(C(=O)OC(C)(C)C)c2cc(Cl)ccc21 [A056, N-Boc-6-chloro-3-decyloxyacetyl-2-oxyindole]
MIC Straphyrococcus aureus 209P [2, 11]: 256 µg/mL (≈ 549 µM)
MIC Clostridium difficile JCM1296 [6]: 4 µg/mL (≈ 8.58 µM)
MIC Clostridium perfringens PB6K ([7]; PB6K strain): 0.5 µg/mL (≈ 1.07 µM)
MIC Escherichia coli K12 [8, 15]: 256 µg/mL (≈ 549 µM)
MIC Escherichia coli BE1121 [9, 16]: 256 µg/mL (≈ 549 µM)

CCCCCCCCCC(=O)N1C(=O)C(=C(O)c2ccc(F)cc2)c2ccccc21 [A061, N-decanoyl-3-(4-fluorobenzoyl)-2-oxyindole]
MIC [1]: 2 µg/mL (≈ 4.88 µM)
MIC ([2]; 209P): 128 µg/mL (≈ 313 µM)
MIC ([3]; MRSA): 64 µg/mL (≈ 156 µM)
MIC ([4]; 5038STRAIN): 4 µg/mL (≈ 9.77 µM)
MIC [5]: 4 µg/mL (≈ 9.77 µM)
MIC [7]: 2 µg/mL (≈ 4.88 µM)
MIC [8]: 128 µg/mL (≈ 313 µM)
MIC [9]: 128 µg/mL (≈ 313 µM)

CCCCCCCCCC(=O)c1c(O)c2cc(F)ccc2oc1=O [B004, 3-decanoyl-6-fluoro-4-hydroxycoumarin]
MIC [1]: 0.25 µg/mL (≈ 0.748 µM)
MIC [2, 11]: 1 µg/mL (≈ 2.99 µM)
MIC ([3]; MRSA): 1 µg/mL (≈ 2.99 µM)
MIC ([4]; 5038STRAIN): 0.5 µg/mL (≈ 1.5 µM)
MIC [5]: 0.25 µg/mL (≈ 0.748 µM)
MIC [7]: 0.25 µg/mL (≈ 0.748 µM)
MIC [8, 15]: 256 µg/mL (≈ 766 µM)
MIC [9, 16]: 2 µg/mL (≈ 5.98 µM)
